# According to ChEMBL document CHEMBL1201862, “PubChem BioAssay data set” (2004):
#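 96-well plates; 48 h exposure; 5 concentrations. Endpoints by linear interpolation between flanking doses. Not reached: highest tested concentration assigned. The concentration for 50% growth inhibition is given as GI50.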 Active and inactive are the calls of the source. Rule as the data show it: active = GI50 up to about 1.1 µM and inactive = higher.
# How the values were obtained:
# Experiment in all cases: growth of human tumour cells (NCI), 48 h
# [1] = test system: HL-60
# [2] = test system: NCI-H460
# [3] = test system: SK-OV-3
# [4] = test system: SK-MEL-2
# [5] = test system: HOP-62
# [6] = test system: SN12C
# [7] = test system: OVCAR-4
# [8] = test system: CCRF-CEM
# [9] = test system: HCT-15
# [10] = test system: A549
# [11] = test system: SNB-75
# [12] = test system: COLO 205
# [13] = test system: SF-268
# [14] = test system: K562
# [15] = test system: EKVX
# [16] = test system: M14
# [17] = test system: SF-295
# [18] = test system: SK-MEL-28
# [19] = test system: MDA-MB-435
SMILES,GI50 [1],GI50 [2],GI50 [3],GI50 [4],GI50 [5],GI50 [6],GI50 [7],GI50 [8],GI50 [9],GI50 [10],GI50 [11],GI50 [12],GI50 [13],GI50 [14],GI50 [15],GI50 [16],GI50 [17],GI50 [18],GI50 [19]
O=c1cccccc1NCCNc1cccccc1=O,> 100 µM (inactive),> 100 µM (inactive),> 100 µM (inactive),> 100 µM (inactive),> 100 µM (inactive),13.6 µM (inactive),> 100 µM (inactive),> 100 µM (inactive),> 100 µM,> 100 µM (inactive),> 10 µM (inactive),> 100 µM (inactive),> 100 µM (inactive),> 100 µM (inactive),> 100 µM (inactive),> 100 µM (inactive),> 100 µM (inactive),,
Cc1cccc(NC(=O)C(=O)C(C(=O)c2ccc3ccccc3c2)C2OC(=O)c3ccccc32)c1C (stereo not drawn),11.4 µM (inactive),9.16 µM (inactive),12.7 µM (inactive),13.2 µM (inactive),10.7 µM (inactive),15.9 µM (inactive),10.9 µM (inactive),8.02 µM (inactive),15.5 µM,19.1 µM (inactive),8.49 µM (inactive),11.5 µM (inactive),6.03 µM (inactive),15.7 µM (inactive),26.1 µM (inactive),14.4 µM (inactive),,5.2 µM (inactive),
O=[As](O)(O)c1cc(/N=N/c2ccc(-c3ccc(/N=N/c4cc([As](=O)(O)O)c(O)cc4O)cc3)cc2)c(O)cc1O,> 48.8 µM (inactive),> 100 µM (inactive),> 100 µM (inactive),> 100 µM (inactive),> 100 µM (inactive),> 100 µM (inactive),> 42.9 µM (inactive),> 45.8 µM (inactive),97.1 µM,> 100 µM (inactive),> 100 µM (inactive),> 100 µM (inactive),> 100 µM (inactive),> 55.5 µM (inactive),> 100 µM (inactive),> 53 µM (inactive),> 100 µM (inactive),> 100 µM (inactive),
CCN(CC)CCn1nc(N)c2nc3ccccc3nc21,> 100 µM (inactive),> 100 µM (inactive),> 100 µM (inactive),> 100 µM (inactive),> 100 µM (inactive),> 100 µM (inactive),> 100 µM (inactive),> 100 µM (inactive),> 100 µM,> 100 µM (inactive),39.9 µM (inactive),,> 100 µM (inactive),> 100 µM (inactive),> 100 µM (inactive),> 100 µM (inactive),> 100 µM (inactive),> 100 µM (inactive),> 100 µM (inactive)
Nc1nc(N)c(-c2ccccc2)c(CCC(=O)Nc2ccc(Cl)cc2)n1,> 100 µM (inactive),> 100 µM (inactive),> 100 µM (inactive),> 100 µM (inactive),> 100 µM (inactive),> 100 µM (inactive),> 100 µM (inactive),> 100 µM (inactive),> 100 µM,> 100 µM (inactive),> 100 µM (inactive),> 100 µM (inactive),> 100 µM (inactive),76.2 µM (inactive),> 100 µM (inactive),> 100 µM (inactive),> 100 µM (inactive),> 100 µM (inactive),
COC1=CCC=C(C[C@@H]2NCCc3cc(OC)c(OC)cc32)C1,> 100 µM (inactive),> 100 µM (inactive),> 100 µM (inactive),> 100 µM (inactive),> 100 µM (inactive),> 100 µM (inactive),> 100 µM (inactive),> 100 µM (inactive),> 100 µM,> 100 µM (inactive),> 100 µM (inactive),> 100 µM (inactive),> 100 µM (inactive),> 100 µM (inactive),> 100 µM (inactive),> 100 µM (inactive),> 100 µM (inactive),> 100 µM (inactive),
CCOC(=O)C(Cc1c[nH]c2cc([N+](=O)[O-])ccc12)NS(=O)(=O)c1ccc2ccccc2c1 (stereo not drawn),22.8 µM (inactive),18.1 µM (inactive),23.4 µM (inactive),17.4 µM (inactive),15.7 µM (inactive),18.7 µM (inactive),10.9 µM (inactive),20.1 µM (inactive),18.7 µM,30.6 µM (inactive),17.1 µM (inactive),18 µM (inactive),20.2 µM (inactive),18.1 µM (inactive),29.1 µM (inactive),19 µM (inactive),17.3 µM (inactive),18.2 µM (inactive),
O=[N+]([O-])c1ccc(SN=S=NSc2cccc(SN=S=NSc3ccc([N+](=O)[O-])cc3)c2)cc1,28.2 µM (inactive),31 µM (inactive),> 100 µM (inactive),17.1 µM (inactive),48.8 µM (inactive),12.4 µM (inactive),36.7 µM (inactive),6 µM (inactive),17.7 µM,46.5 µM (inactive),,46.5 µM (inactive),33 µM (inactive),25.2 µM (inactive),39.3 µM (inactive),37 µM (inactive),44.3 µM (inactive),35.7 µM (inactive),25.2 µM (inactive)
COc1cc2ccc3c4cc(OC)c(OC(C)C)cc4cnc3c2cc1OC,> 100 µM (inactive),> 100 µM (inactive),> 100 µM (inactive),> 100 µM (inactive),> 100 µM (inactive),> 100 µM (inactive),> 100 µM (inactive),> 100 µM (inactive),> 100 µM,> 100 µM (inactive),> 100 µM (inactive),> 100 µM (inactive),> 100 µM (inactive),> 100 µM (inactive),> 100 µM (inactive),> 100 µM (inactive),> 100 µM (inactive),> 100 µM (inactive),
Cc1cc(C)n(-c2ccnc3cc(Cl)ccc23)n1,> 100 µM (inactive),> 100 µM (inactive),> 100 µM (inactive),> 100 µM (inactive),> 100 µM (inactive),> 100 µM (inactive),> 100 µM (inactive),> 100 µM (inactive),> 100 µM,> 100 µM (inactive),> 100 µM (inactive),> 100 µM (inactive),> 100 µM (inactive),> 100 µM (inactive),> 100 µM (inactive),> 100 µM (inactive),> 100 µM (inactive),> 100 µM (inactive),
CCCCCCCCCC(=O)CC(=O)c1ccc(O)cc1O,19 µM (inactive),31.8 µM (inactive),> 100 µM (inactive),18.6 µM (inactive),19.8 µM (inactive),27.3 µM (inactive),42.1 µM (inactive),33.9 µM (inactive),30.2 µM,31.3 µM (inactive),33.6 µM (inactive),> 100 µM (inactive),40.8 µM (inactive),29.1 µM (inactive),25.9 µM (inactive),22.1 µM (inactive),25.6 µM (inactive),39.8 µM (inactive),
COc1cc(C(C#N)NNC(=O)c2ccccc2O)ccc1O (stereo not drawn),2.45 µM (inactive),1.47 µM (inactive),3.18 µM (inactive),2.48 µM (inactive),4.78 µM (inactive),7.03 µM (inactive),5.33 µM (inactive),2.08 µM (inactive),4.06 µM,0.662 µM (active),0.356 µM (active),28.6 µM (inactive),0.368 µM (active),0.622 µM (active),,2.79 µM (inactive),3.28 µM (inactive),30.6 µM (inactive),
